Where two headings read alike, the source gives them in different places.
Experiments:
[1] = mean ± SD, n = 3; for Stability 4℃, 5-D (%): Table S1
Experimental: The HPLC analyses were performed on an Agilent Technology 1260 infinity system (Agilent Technology Inc., Waldbronn, Germany) equipped with an Agilent ChemStation software Rev. B.04.03-SP2 (105), a binary pump, a degasser, an autosampler, a thermostatted sample reservoir, a thermostatted column compartment, and a UV-detector. A Capcell-pak C18 UG120 column (4.6 mm × 250 mm, 5 μm, Osaka Soda Co. Ltd., Osaka, Japan) was used as an analytical column. The mobile phase was composed of 10 mM NaH2PO4 (pH 1.61–1.63) and 100% ACN (78:22, v/v) with isocratic elution at pH of 2.0–2.1 using a flow rate of 1.0 mL/min. The sample reservoir and column oven were maintained at 4 °C and 25 °C, respectively. The analytes were detected using a UV detector with the wavelength set at 220 nm, and the injection volume was 25 μL.
(§1) The aqueous supernatant (approximately 100 μL) was prepared as the final sample extract after rinsing with 600 μL of chloroform.
(§2) The recovery of the sample preparation method was estimated by dividing the peak area for the pre-spiked sample by the peak area for the post-spiked sample, multiplied by 100. […] Short- and long-term stability was evaluated after storage at 4 °C for 36 h and −70 °C for 24 days. Freeze-thaw stability was assessed with three freeze-thaw cycles at −70 °C. The post-preparation stability was also examined at 4 °C for 24 h.

[2] = Post-preparation stability of teicoplanin and IS mixture (processed plasma extract); type: physicochemical, human; details: mean ± SD, n = 3
Experimental: as §1, §2

[3] = cited from earlier work
[4] = system: SARS-CoV-2 (COVID-19); details: read-out: Half-maximal inhibitory concentration (IC50) against SARS-CoV-2; in vitro; preventing viruses' entrance into the cytoplasm; cited from earlier work

**Q.** With polymyxin B [IS] as the substance, how does the “Stability −70 °C, 24-d (%)” value ([1]; long-term, human plasma, IS 100 mg/L, peak area of polymyxin B2, HPLC-UV 220 nm) read?
**A.** 112.2 ± 8.74%

**Q.** What about the “Stability 4 °C, 36 h (%)” value ([1]; short-term, human plasma, IS 100 mg/L (polymyxin B mixture), peak area of polymyxin B2, HPLC-UV 220 nm) of the same substance?
**A.** 96.19 ± 2.79%

**Q.** What about the “Stability Freeze-Thaw (%)” value ([1]; three freeze-thaw cycles at −70 °C, human plasma, IS 100 mg/L, peak area of polymyxin B2, HPLC-UV) of the same substance?
**A.** 111.5 ± 7.36%

**Q.** Which results are given for teicoplanin A2-2?
**A.** Stability Post-preparation, 7-D (%) ([2]; Table S1, H, 500.0 mg/L): 102.58 ± 7.60%; Stability Post-preparation, 7-D (%) ([2]; Table S1, L, 7.81 mg/L): 108.56 ± 24.10%; Stability Post-preparation, 7-D (%) ([2]; Table S1, M, 62.5 mg/L): 105.94 ± 2.00%; Stability 4℃, 5-D (%) ([1]; H, 500.0 mg/L): 101.84 ± 1.59%; Stability 4℃, 5-D (%) ([1]; L, 7.81 mg/L): 100.96 ± 11.32%

**Q.** For vancomycin, which Half-life [3] is on record?
**A.** ~10 h

**Q.** For teicoplanin, which IC50 [4] is on record?
**A.** 1660 nM

— PMC8072975 (Pharmaceutics, 2021)
